Measurements taken from patent publication US5693620A, “Plasmalopsychosines and plasmalocerebrosides” (Oncomembrane, Inc., priority 1994, dated 1997).
Entries after “also recorded” stand apart in the source; their conditions may differ.

Legend:
[1] = Acid lability of glycolipids (aqueous HCl/methanol, TLC mobility); assay type: physicochemical; details: methanol-aqueous 0.1N HCl 1:1, 90° C., 10 min
Protocol: Acid-labile glycolipids were detected by hydrolysis of samples in methanol-aqueous 0.1N HCl (1:1, v/v) heated at 90° C. for 10 min, followed by Folch partitioning and TLC examination of lower phase. The glycolipid with high TLC mobility converting to the same mobility as normal cerebroside by this treatment was regarded as the acid-labile cerebroside.

[2] = Cytotoxicity and growth inhibition in neuroblastoma cell lines; assay type: cell-based; details: various neuroblastoma cell lines; read-out: concentration at which cell growth was inhibited, morphology changed and cells eventually died
neuroblastoma cell lines = assay: as above; assay type: cell-based; details: various neuroblastoma cell lines
[3] = system: mouse neuroblastoma Neuro-2A cells; details: previously reported for a ganglioside effect; cited from earlier work

Compound: CCCCCCCCCCCCCCC[C@@H](O)C(=O)N[C@@H](CO[C@@H]1O[C@H](CO)[C@@H](O)[C@H](O)[C@H]1O)[C@H](O)/C=C/CC/C=C(\C)CCCCCCCCC [Cerebroside]
- TLC mobility after acid hydrolysis [1]: did not show altered TLC mobility

Compound: CCCCCCCCCCCCC/C=C/[C@@H](O)[C@@H](N)CO[C@@H]1O[C@H](CO)[C@H](O)[C@H](O)[C@H]1O [psychosine, galactosylsphingosine]
- MCC [2]: 10 to 20 µg/mL
- cytotoxic effect / growth inhibition (in words) (neuroblastoma cell lines): strong cytotoxic effect; also recorded: cytotoxic effects and inhibited cell growth even at very low doses

Compound: GT1b
- concentration required for ganglioside effect on neurite formation [3]: 200 µg/mL
